Common to all, as to experiment: inhibition of tumour cell growth, NCI panel, 48 h
The test system of assay [1] is SF-268 CNS.
The test system of assay [2] is 786-0 renal.
Assay [3] has as its system UACC-62 melanoma.
Assay [4] has as its system SK-MEL-5 melanoma.
For assay [5], the system named is SNB-75 CNS.
Assay [6] has as its system MDA-MB-231 breast.
Assay [7] deals with SN12C renal.
For assay [8], the system named is EKVX NSCLC.
Assay [9] has as its system UACC-257 melanoma.
The test system of assay [10] is HCT-116 colon.
Assay [11] concerns LOX IMVI melanoma.
Assay [12] deals with RXF 393 renal.
The subject of assay [13] is RPMI-8226 leukemia.
Assay [14] relates to SK-MEL-2 melanoma.
Assay [15] concerns UO-31 renal.
The subject of assay [16] is NCI-H226 lung.
The test system of assay [17] is SK-OV-3 ovarian.

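All cell lines were grown in 96-well plates and treated with compound for 48 hours. TGI marks complete inhibition of growth.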

`O=c1[nH]c2ccc(C(F)(F)F)cc2nc1-c1ccccc1`: the TGI in [1], in [2], in assay [3], in assay [4], in assay [5] and in assay [6] was above 100 µM in each case. For the same compound, the TGI in assay [7], in [8], in [9], in assay [10], in assay [11] and in assay [12] was above 100 µM throughout. The compound also displayed a TGI in assay [13] above 100 µM.
With `CC1C(c2ccc(F)cc2)c2cc3c(cc2OC1N1CCCC1)OCO3` (configuration not stated), the TGI in assay [1], in assay [2], in assay [3], in [14], in assay [4] and in assay [5] was above 100 µM in each case. The TGI in [7], in assay [8], in assay [15], in assay [9], in assay [10] and in assay [11] was above 100 µM in each case.
In the case of `O=c1c(O)c(-c2ccc(O)cc2O)oc2cc(O)cc(O)c12`, the TGI in assay [1], in assay [2], in assay [14], in [4], in [5] and in assay [6] was above 100 µM in each case. In addition, the TGI in [7], in assay [8], in assay [15], in [9], in [16] and in assay [10] was above 100 µM throughout. The compound further came in with a TGI in assay [11] above 100 µM.
With `COc1c(CC=C(C)C)c(O)c(C(CC(C)C)c2c(O)c(C(C)=O)c(O)c3c2OC(C(C)(C)O)C3)c(O)c1C(C)=O` (configuration not stated), the TGI in assay [1] is above 12.5 µM; in assay [2] it was above 12.5 µM; in assay [3] it was above 12.5 µM; in assay [4], 8.24 µM; in [7], above 12.5 µM; in assay [8], 11.6 µM. The TGI is above 12.5 µM in [15]; 9.32 µM in assay [9]; above 12.5 µM in [16]; above 12.5 µM in assay [10]; above 12.5 µM in [11]; 8.56 µM in [12].
Consider `Cc1ccc2c(c1)SSSSS2`, for which the TGI in [1] was determined as 60.5 µM; in assay [2], 37.2 µM; in assay [3], 36.2 µM; in assay [4], 35.8 µM; in assay [5], 49.2 µM; in [6] it was 59.1 µM. Moreover, the TGI in assay [7] is 46.7 µM; in assay [8], 65.1 µM; in assay [15], 33 µM; in [9] it was 38.5 µM; in [10] it was 30.6 µM; in assay [17] it was 39.8 µM. Also, the TGI in assay [11] came to 34.4 µM; in assay [12] it was 39 µM.
Turning to `c1ccc2c(c1)ccc1nc(-c3ccc4c(c3)OCO4)c3c(c12)CCCC3`, the TGI is 88.1 µM in assay [1]; above 100 µM in [2]; 82 µM in assay [3]; above 100 µM in [14]; above 100 µM in assay [5]; 44.3 µM in assay [6]. Further, the TGI is 98.6 µM in [7]; above 100 µM in assay [8]; 90.8 µM in assay [15]; above 100 µM in assay [9]; above 100 µM in assay [16]; above 100 µM in [10]. For the same compound, the TGI in assay [17] and in [13] was above 100 µM in each case.
For `CC(C)(C)OC(=O)[N+](=N)C(=O)C1CCC(=O)N1C(=O)OCc1ccccc1` (configuration not stated), the TGI in assay [1], in assay [2], in [3], in [4], in [5] and in assay [6] was above 100 µM throughout. Besides, the TGI in assay [7], in assay [8], in assay [15], in assay [16], in [10] and in assay [17] was above 100 µM throughout. The TGI in assay [11], in [12] and in [13] was above 100 µM throughout.
Regarding `CSC1=N/C(=C\c2ccc(C)cc2)C(=O)N1CN1CCOCC1`, the TGI in [1], in assay [2], in assay [3], in assay [14], in assay [4] and in [5] was above 100 µM throughout. Also, the TGI in assay [6], in [7], in [8], in assay [15], in [16] and in assay [10] was above 100 µM each time. In addition, the TGI in assay [17], in [11] and in assay [13] was above 100 µM in each case.
As to `c1ccc(COc2ccc(CC3SCCCS3)cc2)cc1`, the TGI in assay [1], in assay [3], in [4], in [6], in assay [8] and in assay [9] was above 100 µM each time. The TGI in assay [10], in assay [11] and in assay [13] was above 100 µM throughout.
Turning to `CC(C)=CCC[C@]1(C)CC[C@]2(C)C3CCC(=C(C)C)[C@@H](CCCO)[C@]3(C)CC[C@@]2(C)C1` (some centres not stated), the TGI was above 100 µM in assay [1]; above 100 µM in assay [2]; above 100 µM in assay [3]; 71.5 µM in [14]; above 100 µM in [4]; above 100 µM in assay [5]. Moreover, the TGI in [6] was above 100 µM; in assay [7] it was above 100 µM; in assay [8], above 100 µM; in assay [15] it was 34 µM; in assay [9], 77.1 µM; in assay [16] it was above 100 µM. In addition, the TGI in assay [10], in assay [17] and in [13] was above 100 µM throughout.

Values taken from PubChem BioAssay (NCI).
